Activity calls are given as the source filed them. No cut-off for these calls is given here.

The results in this text go back to ChEMBL document CHEMBL3124939, “Evaluation of nicotine and cotinine analogs as potential neuroprotective agents for Alzheimer's disease” (2014).

Type in all cases: functional, cell-based
The subject of assay [1] is Cerebral cortex neuron. The experiment in a line: Neuroprotective activity in Sprague-Dawley rat primary cortical neurons assessed as inhibition of amyloid beta 1 to 42-induced toxicity by measuring cell viability at 100 uM by trypan blue exclusion assay.
Assay [2] relates to Cerebral cortex neuron. As to the kind of experiment: Neuroprotective activity in Sprague-Dawley rat primary cortical neurons assessed as inhibition of glutamate-induced toxicity by measuring cell viability at 0.01 uM by trypan blue exclusion assay.
Assay [3] concerns Cerebral cortex neuron. As to the kind of experiment: Neuroprotective activity in Sprague-Dawley rat primary cortical neurons assessed as inhibition of amyloid beta 1 to 42-induced toxicity by measuring cell viability at 0.1 uM by trypan blue exclusion assay.
For assay [4], the system named is Cerebral cortex neuron. As to the kind of experiment: Neuroprotective activity in Sprague-Dawley rat primary cortical neurons assessed as inhibition of glutamate-induced toxicity by measuring cell viability at 10 uM by trypan blue exclusion assay.

Regarding `O=C1CCC(c2cccnc2)N1` (stereo unspecified), the result in the assay on Cerebral cortex neuron [1] was Active.
The same measure, in the same setting: in the case of `C[N+]1=CCC[C@H]1c1cccnc1` it was “Active”.
For the molecule `CN1CCC[C@H]1c1ccc[n+]([O-])c1`, in the assay on Cerebral cortex neuron [2], the result was Active.
For the molecule `CN1C(=O)CC[C@H]1c1cccnc1`, the result with Cerebral cortex neuron [3] was Active.
Still for that read-out and setting: the result for `CN1CCC[C@H]1c1cccnc1` reads “Active”.
On to `CC12CC3CC(C)(C1)CC(N)(C3)C2`, for which the result in the assay with Cerebral cortex neuron [4] was Active.
